Reference: paper PMC4526345 (Biochemistry, 2015)

Columns and labels:
[1] = target: Mycoplana ramosa APAH (Mycoplana ramosa, UniProt Q48935); experiment: APAH inhibition, fluorimetric Fluor-de-Lys assay; type: biochemical; settings: also evaluated after 30 and 60 min incubation times
[2] = target: T1, HDAC8 (Homo sapiens, UniProt Q9BY41); experiment: Deacetylation of N^8-acetylspermidine by HDAC8; type: biochemical; settings: overnight incubation with HDAC8; data not shown
T1 sequence (Q9BY41 1-377): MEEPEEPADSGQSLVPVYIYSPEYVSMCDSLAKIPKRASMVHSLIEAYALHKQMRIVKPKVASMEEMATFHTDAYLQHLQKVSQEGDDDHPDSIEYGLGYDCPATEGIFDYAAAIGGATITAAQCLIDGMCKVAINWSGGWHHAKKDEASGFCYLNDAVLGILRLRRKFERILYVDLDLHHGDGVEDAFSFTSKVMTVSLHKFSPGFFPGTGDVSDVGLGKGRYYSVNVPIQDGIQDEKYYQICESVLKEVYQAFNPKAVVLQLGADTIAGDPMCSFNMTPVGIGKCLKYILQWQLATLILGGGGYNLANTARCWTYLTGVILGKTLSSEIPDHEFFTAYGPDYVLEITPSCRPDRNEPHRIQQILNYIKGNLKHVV

[3] = system: HDAC8; settings: read-out: IC50 HDAC8; cited from earlier work

Chain of Mycoplana ramosa APAH (Q48935 whole entry): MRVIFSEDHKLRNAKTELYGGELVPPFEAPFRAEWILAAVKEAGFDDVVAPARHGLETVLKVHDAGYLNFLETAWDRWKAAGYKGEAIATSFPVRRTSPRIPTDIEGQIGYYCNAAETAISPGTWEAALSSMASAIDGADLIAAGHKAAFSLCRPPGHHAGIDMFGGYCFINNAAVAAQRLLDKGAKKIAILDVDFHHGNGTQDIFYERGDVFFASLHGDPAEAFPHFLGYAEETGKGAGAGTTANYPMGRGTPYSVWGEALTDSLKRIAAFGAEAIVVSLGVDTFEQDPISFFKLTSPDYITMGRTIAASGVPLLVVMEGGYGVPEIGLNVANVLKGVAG

In the case of `Cl.NCCCCCCC(=O)NO` [Compound 6, 7-Amino-N-hydroxyheptanamide hydrochloride salt], the “time-dependent inhibition of APAH” value [1] is reported as “not observed”.

With `CC(=O)NCCCCNCCCN` [N^8-acetylspermidine] the “spermidine product formed by HDAC8” value [2] was “does not yield any measurable spermidine product”.

In the case of largazole thiol, the IC50 [3] is listed as 102 nM.
